Data: US7417056B2, “5-substituted quinoline and isoquinoline derivatives, a process for their production and their use as anti-inflammatory agents” (Schering AG, priority 2004, dated 2008)

What was measured:
[1] = system: tyrosine aminotransferase (TAT); assay: Induction of tyrosine aminotransferase (TAT) in rat hepatoma cells; type: cell-based; details: for efficiency, induction of TAT: 24 hours, efficiency of dexamethasone = 100%; for EC50: treated for 24 hours
Description: One of the most frequent undesirable actions of a glucocorticoid therapy is the so-called “steroid diabetes” [cf. Hatz, H. J., Glucocorticoide: Immunologische Grundlagen, Pharmakologie und Therapierichtlinien [Glucocorticoids: Immunological Principles, Pharmacology and Therapy Guidelines], Wissenschaftliche Verlagsgesellschaft mbH, Stuttgart, 1998]. The reason for this is the stimulation of gluconeogenesis in the liver by induction of the enzymes that are responsible for this and by free amino acids that are produced from the degradation of proteins (catabolic action of glucocorticoids). A key enzyme of the catabolic metabolism in the liver is the tyrosine aminotransferase (TAT). The activity of this enzyme can be determined photometrically from cell cultures of treated rat hepatoma cells. The cells are treated for 24 hours with the test substances, and then the TAT activity is measured.

[2] = Skin atrophy in rats (skin fold thickness measurement); type: in vivo; details: local, daily for 18 days
Protocol: Another undesirable action that occurs especially after local therapy is the induction of a skin atrophy, which leads to the skin's loss of thickness, elasticity, and ultimately the mechanical resistance of the skin. The potential of a substance to induce skin atrophy can be determined in rats. The animals are treated for 18 days daily and locally in equieffective dosages with the test substances. By means of a skin fold thickness measurement, the reduction of the skin thickness over the treatment time can be tracked.

[3] = system: secretion of the cytokine IL-8, induced by lipopolysaccharide (LPS), in the human monocyte cell line THP-1; assay: Inhibition of LPS-induced IL-8 secretion in THP-1 cells (ELISA); type: cell-based; details: efficiency of dexamethasone = 100%
Protocol: The concentration of the cytokines was determined in the supernatant by means of commercially available ELISA kits.

SMILES | reduction of the skin thickness ([2]; concentration 0.1% (maximum anti-inflammatory action is achieved)) [%] | EC50 [1] [nM] | reduction of the skin thickness ([2]; concentration 0.01% (maximum anti-inflammatory action is achieved)) [%] | efficiency, induction of TAT [1] [%] | efficiency, inhibition of IL-8 secretion [3] [%]
Cc1ccc2c(NCC(O)(CC(C)(C)c3cc(F)cc4c3OCC4)C(F)(F)F)cccc2n1 (centres unmarked) [Example 1, 5-[4-(5-Fluoro-2,3-dihydrobenzofuran-7-yl)-2-hydroxy-4-methyl-2-trifluoromethyl-pentylamino]-2-methylquinoline] | 41 | – | – | 93 | 74
Cc1ccc2c(NCC(O)(CC(C)(C)c3cc(F)cc4c3OCC4)C(F)(F)F)ccc(F)c2n1 (centres unmarked) [Example 10, 8-Fluoro-5-[4-(5-Fluoro-2,3-dihydrobenzofuran-7-yl)-2-hydroxy-4-methyl-2-trifluoromethyl-pentylamino]-2-methylquinoline] | – | 10 | – | 92 | 86
C[C@]12C=CC(=O)C=C1CC[C@@H]1[C@@H]2[C@@H](O)C[C@@]2(C)[C@H]1CC[C@]2(O)C(=O)CO [prednisolone, reference compound] | – | – | – | – | 96

Second part, led by results:

reduction of the skin thickness ([2]; concentration 0.1% (maximum anti-inflammatory action is achieved)) [%] | EC50 [1] [nM] | reduction of the skin thickness ([2]; concentration 0.01% (maximum anti-inflammatory action is achieved)) [%] | SMILES | efficiency, induction of TAT [1] [%] | efficiency, inhibition of IL-8 secretion [3] [%]
– | 4 | – | Cn1ccc2c(NCC(O)(CC(C)(C)c3cc(F)cc4c3OCC4)C(F)(F)F)cccc2c1=O (centres unmarked) [Example 11, 5-[4-(5-Fluoro-2,3-dihydrobenzofuran-7-yl)-2-hydroxy-4-methyl-2-trifluoromethyl-pentylamino]-2-methylisoquinol-1(2H)-one] | 86 | 61
– | – | 65 | CCC(=O)O[C@]1(C(=O)CCl)[C@@H](C)C[C@H]2[C@@H]3CCC4=CC(=O)C=C[C@]4(C)[C@@]3(F)[C@@H](O)C[C@@]21C [clobetasol propionate, reference compound] | – | –
